Data published in US7118895B2, “Process for producing aglycon by using diglycosidase and flavor-improved food containing the aglycon and converting agent to be used in the process” (Amano Enzyme Inc., priority 2000, dated 2006).

Experiments:
Purified diglycosidase = assay: Influence of free glucose on diglycosidase activity; type: biochemical, Penicillium multicolor IAM7153; conditions: isolated aglycon amount at glucose 0% and 0.5 hour = 100%
Crude diglycosidase = assay: Examination of pH in the conversion into isoflavone aglycons by diglycosidase using soybean materials; type: biochemical, Penicillium multicolor IAM7153; set-up: Decomposition efficiency of genistin family in soymilk / Decomposition efficiency of genistin family in defatted soybean / Decomposition efficiency of daidzin family in defatted soybean: concentration or dose not given beside the values; conditions: for Decomposition efficiency of genistin family in roasted soy flour: 55° C.
How it was run: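 Suspensions of 50 mg roasted soy flour, soymilk, defatted soybean or concentrated soy protein were brought to pH 2 to 11 with HCl or NaOH and reacted at 55° C with crude diglycosidase (enzyme solution at 1.88 AU/mL, same pH). Ethanol-stopped samples at 0, 1, 3 and 6 h were analysed by HPLC.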

[1] = pH4.8, heat treatment of enzyme: no, reaction time 0 h
[2] = pH4.8, heat treatment of enzyme: no, reaction time 1 h
[3] = pH4.8, heat treatment of enzyme: no, reaction time 3 h

In the case of `CC(=O)OC[C@H]1O[C@@H](Oc2cc(O)c3c(=O)c(-c4ccc(O)cc4)coc3c2)[C@H](O)[C@@H](O)[C@@H]1O` [acetylgenistin, 6″-O-acetylgenistin], the “Isolation of isoflavone aglycons by diglycosidase in presence of glucose” value (shortened to “Isolation of isoflavone aglycons”) (Purified diglycosidase; Glucose concentration 0 %) is reported as 100%, the “Isolation of isoflavone aglycons” value (Purified diglycosidase; Glucose concentration 2 %) is reported as 104.1% and the “Isolation of isoflavone aglycons” value (Purified diglycosidase; Glucose concentration 4 %) is reported as 104.1%. The “Isolation of isoflavone aglycons” value (Purified diglycosidase; Glucose concentration 8 %) was 104.1%, the “Isolation of isoflavone aglycons” value (Purified diglycosidase; Glucose concentration 20 %) was 104.1% and the “Decomposition efficiency of genistin family in concentrated soybean protein” value (Crude diglycosidase; pH1.6, heat treatment of enzyme: no, reaction time 0 h) was 42.5%. For the same molecule, the “Decomposition efficiency of genistin family in concentrated soybean protein” value (Crude diglycosidase; pH1.6, heat treatment of enzyme: no, reaction time 1 h) was 42.2%, the “Decomposition efficiency of genistin family in concentrated soybean protein” value (Crude diglycosidase; pH1.6, heat treatment of enzyme: no, reaction time 3 h) was 40.6% and the “Decomposition efficiency of genistin family in concentrated soybean protein” value (Crude diglycosidase; pH1.6, heat treatment of enzyme: no, reaction time 6 h) was 38.9%. The “Decomposition efficiency of genistin family in concentrated soybean protein” value (Crude diglycosidase; pH1.6, heat treatment of enzyme: yes, reaction time 6 h) was 37.7%, the “Decomposition efficiency of genistin family in roasted soy flour” value (Crude diglycosidase; pH2, heat treatment of enzyme no, reaction time 0 h) was 45.2 and the “Decomposition efficiency of genistin family in roasted soy flour” value (Crude diglycosidase; pH2, heat treatment of enzyme no, reaction time 1 h) was 45.0. For the same molecule, the “Decomposition efficiency of genistin family in roasted soy flour” value (Crude diglycosidase; pH2, heat treatment of enzyme no, reaction time 3 h) was 43.1, the “Decomposition efficiency of genistin family in roasted soy flour” value (Crude diglycosidase; pH2, heat treatment of enzyme no, reaction time 6 h) was 40.7 and the “Decomposition efficiency of genistin family in roasted soy flour” value (Crude diglycosidase; pH2, heat treatment of enzyme yes, reaction time 6 h) was 41.2. The “Decomposition efficiency of genistin family in soymilk” value (“Decomposition efficiency … in soymilk” below) (Crude diglycosidase; pH2.3, heat treatment of enzyme: no, reaction time 0 h) was 0.6%, the “Decomposition efficiency … in soymilk” value (Crude diglycosidase; pH2.3, heat treatment of enzyme: no, reaction time 1 h) was 0.7% and the “Decomposition efficiency … in soymilk” value (Crude diglycosidase; pH2.3, heat treatment of enzyme: no, reaction time 3 h) was 0.8%. For the same molecule, the “Decomposition efficiency … in soymilk” value (Crude diglycosidase; pH2.3, heat treatment of enzyme: no, reaction time 6 h) was 0.6%, the “Decomposition efficiency … in soymilk” value (Crude diglycosidase; pH2.3, heat treatment of enzyme: yes, reaction time 6 h) was 0.6% and the “Decomposition efficiency of genistin family in defatted soybean” value (Crude diglycosidase; pH2.6, heat treatment of enzyme: no, reaction time 0 h) was 1.8%. The “Decomposition efficiency of genistin family in defatted soybean” value (Crude diglycosidase; pH2.6, heat treatment of enzyme: no, reaction time 1 h) was 1.7%, the “Decomposition efficiency of genistin family in defatted soybean” value (Crude diglycosidase; pH2.6, heat treatment of enzyme: no, reaction time 3 h) was 1.7% and the “Decomposition efficiency of genistin family in defatted soybean” value (Crude diglycosidase; pH2.6, heat treatment of enzyme: no, reaction time 6 h) was 1.9%. For the same molecule, the “Decomposition efficiency of genistin family in defatted soybean” value (Crude diglycosidase; pH2.6, heat treatment of enzyme: yes, reaction time 6 h) was 1.6%, the “Decomposition efficiency of genistin family in concentrated soybean protein” value (Crude diglycosidase; pH2.7, heat treatment of enzyme: no, reaction time 0 h) was 42.5% and the “Decomposition efficiency of genistin family in concentrated soybean protein” value (Crude diglycosidase; pH2.7, heat treatment of enzyme: no, reaction time 1 h) was 44.3%. For the same molecule, the “Decomposition efficiency of genistin family in concentrated soybean protein” value (Crude diglycosidase; pH2.7, heat treatment of enzyme: no, reaction time 3 h) was 43.7%, the “Decomposition efficiency of genistin family in concentrated soybean protein” value (Crude diglycosidase; pH2.7, heat treatment of enzyme: no, reaction time 6 h) was 44.0% and the “Decomposition efficiency of genistin family in concentrated soybean protein” value (Crude diglycosidase; pH2.7, heat treatment of enzyme: yes, reaction time 6 h) was 42.5%. The “Decomposition efficiency of genistin family in roasted soy flour” value (Crude diglycosidase; pH3, heat treatment of enzyme no, reaction time 0 h) was 45.2, the “Decomposition efficiency of genistin family in roasted soy flour” value (Crude diglycosidase; pH3, heat treatment of enzyme no, reaction time 1 h) was 45.2 and the “Decomposition efficiency of genistin family in roasted soy flour” value (Crude diglycosidase; pH3, heat treatment of enzyme no, reaction time 3 h) was 41.9. For the same molecule, the “Decomposition efficiency of genistin family in roasted soy flour” value (Crude diglycosidase; pH3, heat treatment of enzyme no, reaction time 6 h) was 43.5, the “Decomposition efficiency of genistin family in roasted soy flour” value (Crude diglycosidase; pH3, heat treatment of enzyme yes, reaction time 6 h) was 45.1 and the “Decomposition efficiency of genistin family in defatted soybean” value (Crude diglycosidase; pH3.4, heat treatment of enzyme: no, reaction time 0 h) was 1.8%. The “Decomposition efficiency of genistin family in defatted soybean” value (Crude diglycosidase; pH3.4, heat treatment of enzyme: no, reaction time 1 h) was 1.5%, the “Decomposition efficiency of genistin family in defatted soybean” value (Crude diglycosidase; pH3.4, heat treatment of enzyme: no, reaction time 3 h) was 1.1% and the “Decomposition efficiency of genistin family in defatted soybean” value (Crude diglycosidase; pH3.4, heat treatment of enzyme: no, reaction time 6 h) was 0.8%. For the same molecule, the “Decomposition efficiency of genistin family in defatted soybean” value (Crude diglycosidase; pH3.4, heat treatment of enzyme: yes, reaction time 6 h) was 1.8%, the “Decomposition efficiency … in soymilk” value (Crude diglycosidase; pH3.5, heat treatment of enzyme: no, reaction time 0 h) was 0.6% and the “Decomposition efficiency … in soymilk” value (Crude diglycosidase; pH3.5, heat treatment of enzyme: no, reaction time 1 h) was “not detected”. The “Decomposition efficiency … in soymilk” value (Crude diglycosidase; pH3.5, heat treatment of enzyme: no, reaction time 3 h) was “not detected”, the “Decomposition efficiency … in soymilk” value (Crude diglycosidase; pH3.5, heat treatment of enzyme: no, reaction time 6 h) was “not detected” and the “Decomposition efficiency … in soymilk” value (Crude diglycosidase; pH3.5, heat treatment of enzyme: yes, reaction time 6 h) was 0.5%. For the same molecule, the “Decomposition efficiency of genistin family in concentrated soybean protein” value (Crude diglycosidase; pH3.7, heat treatment of enzyme: no, reaction time 0 h) was 43.1%, the “Decomposition efficiency of genistin family in concentrated soybean protein” value (Crude diglycosidase; pH3.7, heat treatment of enzyme: no, reaction time 1 h) was 43.5% and the “Decomposition efficiency of genistin family in concentrated soybean protein” value (Crude diglycosidase; pH3.7, heat treatment of enzyme: no, reaction time 3 h) was 36.9%. For the same molecule, the “Decomposition efficiency of genistin family in concentrated soybean protein” value (Crude diglycosidase; pH3.7, heat treatment of enzyme: no, reaction time 6 h) was 30.7%, the “Decomposition efficiency of genistin family in concentrated soybean protein” value (Crude diglycosidase; pH3.7, heat treatment of enzyme: yes, reaction time 6 h) was 43.0% and the “Decomposition efficiency of genistin family in roasted soy flour” value (Crude diglycosidase; pH4, heat treatment of enzyme no, reaction time 0 h) was 45.4. The “Decomposition efficiency of genistin family in roasted soy flour” value (Crude diglycosidase; pH4, heat treatment of enzyme no, reaction time 1 h) was 36.3, the “Decomposition efficiency of genistin family in roasted soy flour” value (Crude diglycosidase; pH4, heat treatment of enzyme no, reaction time 3 h) was 23.4 and the “Decomposition efficiency of genistin family in roasted soy flour” value (Crude diglycosidase; pH4, heat treatment of enzyme no, reaction time 6 h) was 13.4. The “Decomposition efficiency of genistin family in roasted soy flour” value (Crude diglycosidase; pH4, heat treatment of enzyme yes, reaction time 6 h) was 45.4, the “Decomposition efficiency of genistin family in defatted soybean” value (Crude diglycosidase; [1]) was 1.8% and the “Decomposition efficiency … in soymilk” value (Crude diglycosidase; [1]) was 0.5%. The “Decomposition efficiency of genistin family in defatted soybean” value (Crude diglycosidase; [2]) was 1.0%, the “Decomposition efficiency … in soymilk” value (Crude diglycosidase; [2]) was “not detected” and the “Decomposition efficiency of genistin family in defatted soybean” value (Crude diglycosidase; [3]) was 0.6%. The “Decomposition efficiency … in soymilk” value (Crude diglycosidase; [3]) was “not detected” and the “Decomposition efficiency of genistin family in defatted soybean” value (Crude diglycosidase; pH4.8, heat treatment of enzyme: no, reaction time 6 h) was 0.4%.
